Assay results published in ChEMBL document CHEMBL1136365, “Hepatoprotective pyrrole derivatives of Lycium chinense fruits” (2003).

Tests used:
Type in all cases: functional, Hepatocyte
[1] = species on record: Rattus norvegicus; assay: Tested for release of glutamic pyruvic transaminase (GPT) from CCl4 induced toxicity in primary cultures of rat hepatocytes at 1 uM concentration
[2] = species on record: Rattus norvegicus; assay: Tested for release of glutamic pyruvic transaminase (GPT) from CCl4 induced toxicity in primary cultures of rat hepatocytes at 0.1 uM concentration
[3] = species on record: Rattus norvegicus; assay: Tested for release of glutamic pyruvic transaminase (GPT) from CCl4 induced toxicity in primary cultures of rat hepatocytes at 10 uM concentration
[4] = species on record: Rattus norvegicus; assay: Tested for release of glutamic pyruvic transaminase (GPT) from CCl4 induced toxicity in primary cultures of rat hepatocytes at 0.01 uM concentration
[5] = species on record: Rattus norvegicus; assay: Tested for release of glutamic pyruvic transaminase (GPT) from CCl4 induced toxicity in primary cultures of rat hepatocytes at 50 uM concentration

Compound	Relative protection [1]	Relative protection [2]	Relative protection [3]	Relative protection [4]	Relative protection [5]
O=Cc1ccc(CO)n1CCCC(=O)O	39.7%	64.4%	3.2%	12.4%	
COC(=O)CCCn1c(C=O)ccc1CO	40.8%	30.8%	20.8%	5.1%	
COCc1ccc(C=O)n1CCCC(=O)OC	13.2%	38.5%	15.9%	8.9%	
COCc1ccc(C=O)n1CCCC(=O)O	29.2%	65.8%	14.2%	36%	
COc1cc([C@H]2Oc3cc([C@H]4Oc5cc(O)cc(O)c5C(=O)[C@@H]4O)ccc3O[C@@H]2CO)ccc1O [SILIBININ]	14.6%		28.8%		45.5%
